Patent publication US20080300243A1, “Amide Derivatives as Ion-Channel Ligands and Pharmaceutical Compositions and Methods of Using the Same” (priority 2005, published 2008)

Experiments:
[1] = Half-life in human liver microsomes (HLM); format: in vitro ADME; conditions: human, human liver microsomes (HLM, HL101), pH 7.4; 1 μM compound, 0.78 mg/mL HLM, 37° C., NADPH
Protocol: Test compounds (1 μM) were incubated with 3.3 mM MgCl2 and 0.78 mg/mL HLM (HL101) in 100 mM potassium phosphate buffer (pH 7.4) at 37° C. on the 96-deep well plate. The reaction mixture was split into two groups, a non-P450 and a P450 group. NADPH was only added to the reaction mixture of the P450 group. An aliquot of samples of P450 group was collected at 0, 10, 30, and 60 min time point, where 0 min time point indicated the time when NADPH was added into the reaction mixture of P450 group. An aliquot of samples of non-P450 group was collected at −10 and 65 min time point. Collected aliquots were extracted with acetonitrile solution containing an internal standard. The precipitated protein was spun down in centrifuge (2000 rpm, 15 min). The compound concentration in supernatant was measured by LC/MS/MS system.
The half-life value was obtained by plotting the natural logarithm of the peak area ratio of compounds/internal standard versus time. The slope of the line of best fit through the points yields the rate of metabolism (k). This was converted to a half-life value using following equations:
Exemplary compounds of the invention were tested (1 μM), and were incubated with 3.3 mM MgCl2 and 0.78 mg/mL HLM (HL101) in 100 mM potassium phosphate buffer (pH 7.4) at 37° C. on the 96-deep well plate. The reaction mixture was split into two groups, a non-P450 and a P450 group. NADPH was only added to the reaction mixture of the P450 group. An aliquot of samples of the P450 group was collected at 0, 10, 30, and 60 minute time points, where the 0 minute time point indicated the time when NADPH was added into the reaction mixture of the P450 group. An aliquot of samples of the non-P450 group was collected at −10 and 65 minute time points. Collected aliquots were extracted with an acetonitrile solution containing an internal standard. The precipitated protein was spun down in a centrifuge (2000 rpm, 15 rain). The compound concentration in supernatant was measured by LC/MS/MS system. The half-life value (T1/2) was obtained by plotting the natural logarithm of the peak area ratio of compounds/internal standard versus time. The slope of the line of best fit through the points yields the rate of metabolism (k). This was converted to a half-life value using following equations: Half-life=ln 2/k.

[2] = molecular target: T1, VR1 (Homo sapiens, UniProt Q8NER1); assay: Acid stimulation assay (FDSS 6000); format: cell-based; set-up: host or cells: unspecified cell suspension; conditions: final assay buffer pH5.8, 15 min pre-incubation
Protocol: The Acid-induced changes in the intracellular calcium concentration were monitored using FDSS 6000 (Hamamatsu Photonics, Japan), a fluorometric imaging system. The cell suspension in resting buffer (HBSS supplemented with […], pH 7.4) was pre-incubated with varying concentrations of the test compounds or resting buffer (buffer control) for 15 minutes at room temperature under dark conditions. The cells were automatically added the stimulating solution (HBSS supplemented with MES, final assay buffer pH5.8) by the FDSS 6000.
Target sequence in this assay (Q8NER1 whole entry, species assumed): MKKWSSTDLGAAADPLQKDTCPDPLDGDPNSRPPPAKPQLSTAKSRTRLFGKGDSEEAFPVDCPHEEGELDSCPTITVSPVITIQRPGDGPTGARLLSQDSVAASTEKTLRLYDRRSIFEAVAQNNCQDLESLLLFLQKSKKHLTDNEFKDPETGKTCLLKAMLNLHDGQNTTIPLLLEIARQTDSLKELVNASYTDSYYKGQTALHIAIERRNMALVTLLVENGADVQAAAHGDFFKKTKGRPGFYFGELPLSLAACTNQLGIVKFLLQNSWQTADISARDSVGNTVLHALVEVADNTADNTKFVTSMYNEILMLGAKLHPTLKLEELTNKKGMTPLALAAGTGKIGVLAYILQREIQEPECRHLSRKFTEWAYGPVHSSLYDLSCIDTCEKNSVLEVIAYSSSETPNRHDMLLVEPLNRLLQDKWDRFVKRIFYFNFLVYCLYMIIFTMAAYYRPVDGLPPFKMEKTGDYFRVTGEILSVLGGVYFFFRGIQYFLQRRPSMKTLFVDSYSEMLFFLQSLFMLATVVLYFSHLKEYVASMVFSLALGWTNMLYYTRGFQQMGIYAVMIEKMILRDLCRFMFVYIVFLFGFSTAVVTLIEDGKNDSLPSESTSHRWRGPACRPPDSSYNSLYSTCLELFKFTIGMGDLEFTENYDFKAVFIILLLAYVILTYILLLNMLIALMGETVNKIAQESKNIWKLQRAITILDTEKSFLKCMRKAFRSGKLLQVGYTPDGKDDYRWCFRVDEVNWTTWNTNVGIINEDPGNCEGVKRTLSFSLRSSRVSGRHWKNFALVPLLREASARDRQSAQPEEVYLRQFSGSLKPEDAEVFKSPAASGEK

[3] = molecular target: T1, VR1; assay: Calcium uptake assay, low pH (proton) stimulus; format: cell-based; set-up: expressed in transfected cells; host or cells: T-REx HEK 293 (Invitrogen), pcDNA5/TO vector; conditions: HEK293; 0.3 μM compound; low pH agonist; HEK 293 cells expressing hVR1; read-out: Low pH % Inhib. @ 0.3 μM
Target sequence in this assay (Q8NER1 whole entry): as the sequence (Q8NER1 whole entry, species assumed) above

[4] = molecular target: T2, VR1 receptor (Rattus norvegicus, UniProt O35433); assay: Calcium imaging assay in DRG neurons, capsaicin stimulus; format: cell-based; conditions: for inhibition of the Capsaicin induced intracellular calcium response (FIG. 1): 3 nM compound, DRG neurons
T2 construct: endogenous in cells; host or cells: dorsal root ganglion (DRG) neurons
T2 sequence (O35433 whole entry): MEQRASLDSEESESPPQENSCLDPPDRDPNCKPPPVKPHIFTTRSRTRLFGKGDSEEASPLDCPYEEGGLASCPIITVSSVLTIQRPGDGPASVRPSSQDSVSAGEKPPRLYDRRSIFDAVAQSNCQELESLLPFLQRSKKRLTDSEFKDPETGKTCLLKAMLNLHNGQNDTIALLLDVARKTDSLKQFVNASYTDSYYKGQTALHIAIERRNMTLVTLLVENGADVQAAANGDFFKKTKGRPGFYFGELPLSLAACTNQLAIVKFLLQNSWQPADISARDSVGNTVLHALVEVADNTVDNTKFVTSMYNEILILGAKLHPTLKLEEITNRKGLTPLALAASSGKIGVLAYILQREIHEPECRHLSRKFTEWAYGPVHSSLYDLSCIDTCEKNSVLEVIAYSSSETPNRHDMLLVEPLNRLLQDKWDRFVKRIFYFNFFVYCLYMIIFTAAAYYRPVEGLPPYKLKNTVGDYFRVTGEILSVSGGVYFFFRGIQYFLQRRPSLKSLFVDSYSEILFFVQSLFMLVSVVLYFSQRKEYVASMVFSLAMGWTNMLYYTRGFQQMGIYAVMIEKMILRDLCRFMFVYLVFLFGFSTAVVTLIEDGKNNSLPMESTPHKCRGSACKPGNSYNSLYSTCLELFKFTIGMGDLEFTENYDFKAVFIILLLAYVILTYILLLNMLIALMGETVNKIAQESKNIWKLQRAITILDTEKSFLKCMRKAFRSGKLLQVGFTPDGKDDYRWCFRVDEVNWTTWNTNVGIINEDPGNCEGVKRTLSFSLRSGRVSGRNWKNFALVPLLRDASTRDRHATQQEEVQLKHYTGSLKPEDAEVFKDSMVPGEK
Protocol: Therefore the functional activity of compounds at the VR1 receptor may be determined by measuring changes in intracellular calcium levels in neurons such as the dorsal root ganglion. […] Prior to assay, cells were loaded with 5 μg/ml Fura2 in normal saline solution at 37° C. for 40 minutes. Cells were then washed with normal saline to remove dye before commencement of the experiment. The plated neurons were transferred into a chamber on the stage of a Nikon eclipse TE300 microscope after which neurons were allowed to attain a stable fluorescence for about 10 minutes before beginning the experiment. The assay consists of two stages, a pretreatment phase followed by a treatment phase. First, a solution of the test compound was added from a multivalve perfusion system to the cells for 1 minute (pretreatment). […] Fura2 was excited at 340 and 380 nm to indicate relative calcium ion concentration. Changes in wavelength measurements were made throughout the course of the experiment. The fluorescence ratio was calculated by dividing fluorescence measured at 340 nm by that at 380 nm. Data were collected using Intelligent Imaging's Slidebook software.

## Cc1cc(/C=C/C(F)(F)F)ccc1C(=O)Nc1ccc2sc(CO)nc2c1 [Compound 225]
[1]
  half-life at 1 μM: 3.26 h
[2]
  IC50: 0.9 nM
[3]
  inhibition at 0.3 µM: 110%
[4]
  inhibition of the Capsaicin induced intracellular calcium response (FIG. 1): significant inhibition
[4]; listed as compound 225
  inhibition of the Capsaicin induced intracellular calcium response (FIG. 1): reduced
[4]; DRG neuron, read-out: % inhibition of capsaicin induced calcium influx
  inhibition at 0.003 µM: > 75%
